The results in this text go back to PubChem BioAssay AID463203 (Broad Institute, 2010).

Usually AC50 stands for the concentration giving half of the maximal activity seen.

Calls of active or inactive are those of the source.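 The calls were made as follows: active = more than half of replicate measurements showing over 20% loss of kinase signal relative to plate controls; inconclusive = some but at most half of replicates over 20% loss; inactive = no replicate over 20% signal loss.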

The target of the test is Glycogen synthase kinase-3 alpha (Homo sapiens) (UniProt P49840). In words: concentration-response blocking of human GSK3A – biochemical, luminescence, cell-free homogeneous, retest, dose response (AID 463203). To be noted: GSK-3 alpha enzyme, ADP-Glo luminescence, 60 min. A general note: In ADP-Glo the light output rises with the ADP produced.
Chain of Glycogen synthase kinase-3 alpha (Homo sapiens) (P49840 whole entry, looked up): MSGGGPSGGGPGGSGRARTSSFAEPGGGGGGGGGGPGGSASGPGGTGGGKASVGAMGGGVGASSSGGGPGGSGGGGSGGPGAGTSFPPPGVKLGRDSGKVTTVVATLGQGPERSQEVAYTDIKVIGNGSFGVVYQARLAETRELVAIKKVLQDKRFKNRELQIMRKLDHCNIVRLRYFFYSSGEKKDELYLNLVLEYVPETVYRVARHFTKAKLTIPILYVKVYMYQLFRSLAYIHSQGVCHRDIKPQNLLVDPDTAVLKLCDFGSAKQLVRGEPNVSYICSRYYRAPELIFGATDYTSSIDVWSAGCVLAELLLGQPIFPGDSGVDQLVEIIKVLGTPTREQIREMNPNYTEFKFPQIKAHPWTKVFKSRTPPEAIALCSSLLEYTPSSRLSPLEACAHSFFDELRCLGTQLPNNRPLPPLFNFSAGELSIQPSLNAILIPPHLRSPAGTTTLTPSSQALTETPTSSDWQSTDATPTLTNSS
In the case of `Cc1ccc(C(=O)N2NC(c3ccc(F)cc3)C3C(=O)N(c4ccc(C)cc4)C(=O)C32)cc1` (configuration not stated), the AC50 was > 30 µM (inactive).
The result for `Cc1cnn(-c2cc(N/N=C/c3ccccc3)ncn2)c1` reads > 30 µM (inactive); that for `CS(=O)(=O)N1CCN(c2ccccc2NC(=O)c2ccc(Br)o2)CC1`, 1.94 µM.
The result for `O=C1/C(=C/c2cccc([N+](=O)[O-])c2)N2CCC1CC2` reads > 30 µM (inactive); that for `COc1ccccc1NC(=O)CCSc1nnc(-c2ccc(O)cc2)o1`, 8.24 µM.
The result for `COc1ccc(OCC(=O)N2CCN(c3nnc(-c4ccc(C)cc4)c4ccccc34)CC2)cc1` reads > 30 µM (inactive); that for `COC(=O)[C@@H](NC(=O)NCc1ccccc1Cl)C(C)C`, > 30 µM (inactive); that for `CCCCOc1ccc(-c2nnc(N)s2)cc1`, > 30 µM (inactive).
For the molecule `CC(=O)Nc1ccccc1C`, the AC50 was > 30 µM (inactive).
On to `O=C(Nc1cccc(Cl)c1N1CCCC1)c1ccc(Br)o1`, for which the AC50 was > 30 µM (inactive).
The result for `CCC(=O)C1CCCN(C(=O)CCc2nnc(-c3ccc4c(c3)OCO4)o2)C1` (configuration not stated) reads > 30 µM (inactive); that for `O=C(c1ccc(Cl)cc1)c1cnc(Nc2ccccc2)s1`, > 30 µM (inactive).
With `O=C(COc1ccccc1Br)NC1CC1` the figure was > 30 µM (inactive); with `O=C(Nc1sc2c(c1C(=O)N1CCOCC1)CCCCC2)c1cccnc1`, > 30 µM (inactive); with `O=C(CSc1ccc2nnc(-c3ccccn3)n2n1)N1CCOCC1`, > 30 µM (inactive).
With `COc1ccc(CNc2cc(NCCCO)c([N+](=O)[O-])c3nonc23)cc1` the figure was 13.3 µM.
`NC(=O)c1cc([N+](=O)[O-])ccc1NCc1ccc(N)cc1`: the AC50 is 8.36 µM.
With `COc1cccc(C2C3(C#N)C(N)=NC(OC)(OC)C23C#N)c1` (configuration not stated) the figure was > 30 µM (inactive); with `Nc1nonc1-n1nnc(C(=O)N/N=C/c2cccc(Cl)c2)c1-c1cccs1`, 0.614 µM.
The result for `COc1ccc(C(=O)O/N=C(\N)c2ccccc2)cc1` reads 25 µM.
The result for `O=c1[nH]nc(SCc2nnc(-c3cccc(Cl)c3)o2)n1C1CCCCC1` reads > 30 µM (inactive).
Regarding `CC1(C)Cc2c(sc3ncn(N)c(=N)c23)CO1`, the AC50 is > 30 µM (inactive).
The result for `Cc1ccc(-c2c3c(nc4sc(C(N)=O)c(N)c24)CCC3)cc1` reads 5.39 µM.
The result for `COc1ccc(CCNc2nc(C)cc(C)n2)cc1OC` reads > 30 µM (inactive).
Consider `Cc1cccc(NC(=O)CSc2nc3[nH]ncc3c(=O)n2-c2ccccc2)c1`, for which the AC50 was > 30 µM (inactive).
`CC(C)(C)NC(=O)/C(=C/c1ccccc1F)NC(=O)c1ccc([N+](=O)[O-])cc1`: the AC50 is > 30 µM (inactive).
Turning to `O=c1[nH]c(=O)n(C2CCCCCC2)c(O)c1C=NC1CCN(Cc2ccccc2)CC1`, the AC50 is 9.67 µM.
The result for `NS(=O)(=O)c1ccc(N=Nc2ccc(=O)[nH]c2O)cc1` reads 6.56 µM; that for `CC1(c2ccccc2)CC(C)(C)N2C(=O)/C(=C3\SC(=S)NC3=O)c3cccc1c32` (configuration not stated), > 30 µM (inactive).
With `O=C(Nc1ncc([N+](=O)[O-])s1)C1CC(=O)N(c2ccc(F)cc2)C1` (configuration not stated) the figure was 12.4 µM; with `O=c1[nH]c2c(s1)C(c1ccco1)C1C3CCC(C3)C1S2` (configuration not stated), 15.3 µM; with `COC(=O)c1oc2ccc(Cl)cc2c1N`, > 30 µM (inactive).
The result for `COC(=O)Nc1nnc(COc2ccccc2)s1` reads > 30 µM (inactive); that for `CN1/C(=C/C2CC(=O)NC2=O)C(C)(C)c2ccccc21` (configuration not stated), 5.14 µM; that for `NS(=O)(=O)c1ccc(NC(=O)CSc2nnc(-c3ccc(O)cc3)o2)cc1`, 4.93 µM.
With `O=C(COC(=O)c1cccc(S(=O)(=O)N2CCOCC2)c1)Nc1ncc(Cl)cc1Cl`, the AC50 is > 30 µM (inactive).
Take `Nc1nonc1-n1nnc(C(=O)N/N=C/c2ccc(Cl)cc2Cl)c1CN1CCOCC1`: the AC50 was > 30 µM (inactive).
With `Nc1ncnc2c1ncn2[C@@H]1O[C@H](COS(=O)(=O)O)[C@@H](O)[C@H]1O` the figure was > 30 µM (inactive); with `CCOc1ccc(Cn2nnc(C(=O)Nc3cc(C)cc(C)c3)c2N)cc1`, > 30 µM (inactive); with `CCSc1nc2c(c(=O)[nH]1)C(c1ccccn1)C1=C(CC(C)(C)CC1=O)N2` (configuration not stated), > 30 µM (inactive).
With `COc1cccc2cc(C(=O)NCc3ccco3)c(=O)oc12` the figure was > 30 µM (inactive).
With `CCN1CCN(c2c(Cl)cccc2NC(=O)c2ccc(Br)o2)CC1` the figure was 2.59 µM; with `COc1ccc(OC)c(S(=O)(=O)N2CCN(C(=O)c3cc(C4CC4)nn3-c3ccccc3)CC2)c1`, > 30 µM (inactive).
With `CCCNC(=O)Cn1c(-c2ccc(F)cc2)cc(C(=O)OCC)c1C`, the AC50 is > 30 µM (inactive).
With `Cc1cccc(C)c1OC(=O)C(c1ccccc1)c1ccccc1` the figure was > 30 µM (inactive).
With `CCOC(=O)c1nnn(-c2nonc2N)c1-c1ccc(Br)cc1` the figure was 12.4 µM; with `O=C(CNCC1CCCO1)Nc1ccc([N+](=O)[O-])cc1C(=O)Nc1ccccc1F` (configuration not stated), > 30 µM (inactive); with `Cc1cc2c(C)c(C)c(=O)[nH]c2cc1N`, > 30 µM (inactive).
Turning to `Nc1nc(N)nc(-c2cc([N+](=O)[O-])ccc2O)n1`, the AC50 was 2.41 µM.
For `c1ccc2c(c1)ccc1nnc(-c3ccc4c(c3)OCO4)n12`, the AC50 is > 30 µM (inactive).
With `CC(=O)Nc1ccc2nsnc2c1` the figure was > 30 µM (inactive); with `CN(C)c1ccc(/C=N/NC(=O)c2nnn(-c3nonc3N)c2CN(C)c2ccccc2)cc1`, > 30 µM (inactive).
For the molecule `CCCOc1ccc(-c2c(C(=O)N/N=C(\C)c3ccncc3)nnn2-c2nonc2N)cc1`, the AC50 is > 30 µM (inactive).
For the molecule `O=C(CSc1ccccn1)Nc1ccccc1F`, the AC50 is > 30 µM (inactive).
Take `COc1ccc(/C=C(\C#N)C(=O)N=CN(C)C)cc1`: the AC50 was > 30 µM (inactive).
The result for `CCc1ccc(NC(=O)N[C@H](C(=O)O)C(C)CC)cc1` (some centres not stated) reads > 30 µM (inactive); that for `COc1cccc(/C=N/NC(=O)C(=O)N2CCCC2)c1OC`, > 30 µM (inactive); that for `COc1ccc2[nH]c(C)c(CN3CCCCC3)c(=O)c2c1`, > 30 µM (inactive).
With `CSc1cccc(NC(=O)CN(C)S(=O)(=O)c2cnc[nH]2)c1` the figure was > 30 µM (inactive); with `O=C1/C(=C/c2ccc3c(c2)OCO3)Oc2cc(OCC(=O)N3CCC[C@H]3C(=O)O)ccc21`, 4.35 µM.
With `O=C(Nc1ccccc1F)Nc1ccccc1OC(F)F` the figure was > 30 µM (inactive); with `CCCOc1cc2c(C#N)c(N3CCCC3)nc(N)c2c(N)n1`, > 30 µM (inactive); with `COc1ccc2c3c(cccc13)C(=O)CC2`, > 30 µM (inactive).
With `CC(=O)Nc1ccc(OC(=O)CC2SC(=O)NC2=O)cc1` (configuration not stated), the AC50 is > 30 µM (inactive).
The result for `O=C(CSc1ccc2nnc(-c3ccccc3)n2n1)N1CCCc2ccccc21` reads > 30 µM (inactive).
The result for `COc1ccc(NC(=O)Nc2ccc(Br)c(C)c2)cc1` reads > 30 µM (inactive); that for `Cc1cc2nc(-c3cccnc3SCC(=O)NC3CC3)[nH]c2cc1C`, > 30 µM (inactive); that for `O=C(NCCCn1ccnc1)C(=O)NC1CCCCC1`, > 30 µM (inactive).
The result for `Cc1ccc(N(Cc2ccc([N+](=O)[O-])cc2)C(=O)c2ccco2)cc1C` reads > 30 µM (inactive).
For the molecule `Cc1cc(C)nc(NS(=O)(=O)c2cccs2)c1`, the AC50 is > 30 µM (inactive).
The result for `Cc1cc(-c2ccccc2)c2c3c(c(-c4ccccc4)n2n1)c(=O)n(C)c(=O)n3C` reads > 30 µM (inactive); that for `CCn1c(=O)[nH]c(=O)c2c(N)c(C(=O)c3cc(F)ccc3F)sc21`, 10.4 µM.
Consider `COc1ccc(N=c2oc3c(OC)cccc3cc2C(=O)NCc2ccco2)c(OC)c1`, for which the AC50 was > 30 µM (inactive).
In the case of `COc1cc(/C=N/NC(=O)c2cccnc2)cc(Br)c1O`, the AC50 was > 30 µM (inactive).
Consider `O=C(CSc1nnc(-c2ccncc2)s1)Nc1ccccc1`, for which the AC50 was > 30 µM (inactive).
As for `CC(=O)Nc1cccc(-c2csc(N)n2)c1`, the AC50 is > 30 µM (inactive).
With `COc1ccc(NC(=O)Nc2ccc(F)cc2F)c(C)c1` the figure was > 30 µM (inactive).
For `CN(C)/C=C/c1c([N+](=O)[O-])c2ccc(O)cc2n1-c1ccccc1`, the AC50 is 2.08 µM.
The result for `O=C1c2cnc3nc(SCc4ccccc4)nn3c2CC2c3ccccc3CCN12` (configuration not stated) reads > 30 µM (inactive).
Turning to `COc1ccc(C(=O)C[n+]2cccc(Br)c2)cc1`, the AC50 is > 30 µM (inactive).
With `CCCCC(=O)Nc1ccc2c(c1)C(=O)NC2=O` the figure was 15.6 µM; with `NC(=O)c1cc([N+](=O)[O-])c(Cl)cc1NCc1cccnc1`, 4.43 µM; with `O=C1c2ccccc2-c2onc3ccc(NCc4ccco4)c1c23`, > 30 µM (inactive).
For the molecule `Clc1ccc(OCc2nnc(SCc3nnc(-c4ccccc4)o3)o2)c(Cl)c1`, the AC50 was > 30 µM (inactive).
The result for `CN(Cc1c(C(=O)N/N=C/c2ccccc2)nnn1-c1nonc1N)C1CCCCC1` reads > 30 µM (inactive); that for `COC(=O)CCCNc1ncccc1[N+](=O)[O-]`, > 30 µM (inactive); that for `S=C(Nc1ccc(Cl)cc1)Nc1cccc2cnccc12`, > 30 µM (inactive).
With `CCOc1cccc(-c2c(C(=O)N/N=C/c3sccc3C)nnn2-c2nonc2N)c1` the figure was > 30 µM (inactive).
For `COC(=O)[C@@H](NC(=O)NCc1ccc(F)cc1)C(C)C`, the AC50 is > 30 µM (inactive).
For `NC(=O)c1cn(-c2ccccc2)nc1-c1cccnc1`, the AC50 was > 30 µM (inactive).
The result for `CCc1nnc(NC(=O)c2cccc(S(=O)(=O)N3CC(c4ccccc4)CC3=O)c2)s1` (configuration not stated) reads > 30 µM (inactive); that for `COC(=O)c1cc(O)c(OCc2ccccc2)c(O)c1`, > 30 µM (inactive).
